Assay results reported in patent publication US4771071A, “Antihypercholesterolemic compounds” (Merck & Co., Inc., priority 1986, dated 1988).

Experiments:
HMG-CoA reductase = HMG-CoA reductase inhibition assay (in vitro); type: biochemical; settings: IC50 compared with compactin determined simultaneously, compactin assigned 100; tested as sodium salt of dihydroxy acid form; solubilized rat liver microsomal enzyme
Method: The intrinsic HMG-CoA reductase inhibition activityof the claimed compounds is measured in the in vitro protocol published in J. Med. Chem., 28, p. 347-358 (1985) and described below:
Male Holtzman Sprague-Dawley rats (225-250 g) were kept on reversed lighting and fed Purina rat chow containing 3% cholestyramine for 7 days preceding their sacrifice by CO2 asphyxiation. Livers were removed 6 hours into the dark cycle and used immediately to prepare microsomes. […]
Test compounds or compactin (after first being converted to the sodium salt of their dihydroxy acid form in situ by addition of 1N NaOH (1 equivalent) were added to the assay system in 10-μL volumes at multiconcentration levels. After a 40-minutes incubation at 37° C. with shaking and exposure to air, the reaction was stopped by the addition of 0.4 mL of 8N HCl. After an additional 30-minute incubation at 37° C. to ensure the complete lactonization of mevalonic acid to mevalonolactone, 0.2 ml of the mixture was added to an 0.5×5.0 cm column containing 100-200 mesh BioRex 5, chloride form (Bio-Rad), wetted with distilled water, as described by Alberts et al., [J. Proc. Natl. Acad. Sci. U.S.A., 1980, 77, 3957]. […] Five milliliters of Aquasol-2 (New England Nuclear) was added to each vial, and radioactivity was measured in a Packard Tri Carb Prias scintillation counter. […]

[1] = Stability of free hydroxy acid on standing; type: physicochemical
Method: The sodium salt of the compound II from Example 11 is redissolved in 2 ml of ethanol-water (1:1) and added to 10 ml of 1N hydrochloric acid from which the hydroxy acid is extracted with ethyl acetate. The latter solvent is washed once with water, dried, and removed in vacuo with a bath temperature not exceeding 30° C.

Question: For “6(R)-[2-[8(S)-(2,2-Dimethyl-3-methoxycarbonylpropionyloxy)-2(S),6(R)-dimethyl-1,2,6,7,8,8a-(R)-hexahydronaphthyl-1(S)]ethyl]-4(R)-hydroxy-3,4,5,6-tetrahydro-2H-pyran-2-one [Example 2]”, which “Relative Potency” value (HMG-CoA reductase) is on record?
Answer: 59

Question: For “6(R)-[2-[8(S)-(2,2-dimethyl-3-methoxy-3-oxopropionyloxy)-2(S),6(R)-dimethyl-1,2,6,7,8,8a(R)-hexahydronaphthyl-1(S)]ethyl]-4(R)-hydroxy-3,4,5,6-tetrahydro-2H-pyran-2-one [Example 1]”, which “Relative Potency” value (HMG-CoA reductase) is on record?
Answer: 87

Question: With COC(=O)C(C)(C)C(=O)O[C@H]1C[C@@H](C)C=C2C=C[C@H](C)[C@H](CC[C@@H](O)C[C@@H](O)CC(=O)O)[C@H]21 [Example 13] as the compound, how does the “stability of hydroxy acid (reversion to lactone)” value [1] read?
Answer: slowly reverts to the lactone on standing
